From PubChem BioAssay AID296 (DTP/NCI, 2004)
Values joined by “and” are separate entries in the source; they are usually repeats but may differ in a detail not shown here. Identical values can stand only once. Records with an inconclusive call do not appear.

Test system: MX-1 breast xenograft, nude mice, tumor weight T/C
Assay: NCI In Vivo Anticancer Drug Screen. Data for tumor model Human Mammary Carcinoma MX-1 Xenograft (intrarenal inoculation) in NU/NU Swiss (nude) mice
Conditions: endpoint: mean tumor weight change, higher = larger tumour
Protocol: The antitumor activity of compounds was measured in mice bearing transplantable tumors. Survival or tumor size were measured and the results are expressed as the measurement made in the treated group (T) divided by the measurement made in the vehicle treated control group (C). The tumor model used in this assay is Human Mammary Carcinoma MX-1 Xenograft (intrarenal inoculation) in NU/NU Swiss (nude) mice

[1] = dose: 37.5 mg/kg/injection, schedule: Q04DX003 (sc), vehicle: saline with Tween-80
[2] = dose: 150.0 mg/kg/injection, schedule: Q04DX003 (sc), vehicle: saline with Tween-80
[3] = dose: 600.0 mg/kg/injection, schedule: Q04DX003 (sc), vehicle: saline with Tween-80
[4] = dose: 2400.0 mg/kg/injection, schedule: Q04DX003 (sc), vehicle: saline with Tween-80
[5] = dose: 400.0 mg/kg/injection, schedule: Q01DX010 (sc), vehicle: saline with Tween-80
[6] = dose: 9.38 mg/kg/injection, schedule: Q04DX003 (sc), vehicle: saline with Tween-80
[7] = dose: 18.75 mg/kg/injection, schedule: Q04DX003 (sc), vehicle: saline with Tween-80
[8] = dose: 300.0 mg/kg/injection, schedule: Q04DX003 (sc), vehicle: saline with Tween-80
[9] = dose: 1200.0 mg/kg/injection, schedule: Q04DX003 (sc), vehicle: saline with Tween-80

COC1=CC(=O)C(OC)=C(OC)C1=O
T/C [1]: 86 % of control | T/C [2]: 93 % of control

BrC1c2cccc3cccc(c23)C1Br (stereo unspecified)
T/C [3]: 202 % of control | T/C [4]: 113 % of control

C1CCC(NC2CCCCC2)CC1
T/C (dose: 75.0 mg/kg/injection, schedule: Q04DX003 (ip), vehicle: saline): 119 % of control | T/C (dose: 150.0 mg/kg/injection, schedule: Q04DX003 (ip), vehicle: saline): 174 % of control

CN1CCN(Cc2nc3cccc4c3c([n+]2[O-])-c2ccccc2-4)CC1
T/C (dose: 12.5 mg/kg/injection, schedule: Q01DX010 (sc), vehicle: saline with Tween-80): 72 % of control | T/C (dose: 25.0 mg/kg/injection, schedule: Q01DX010 (sc), vehicle: saline with Tween-80): 96 % of control | T/C [5]: 35 % of control

CC[n+]1c(-c2ccccc2)c2cc(N)ccc2c2ccc(N)cc21
T/C (dose: 15.0 mg/kg/injection, schedule: Q04DX003 (sc), vehicle: saline): 119 % of control | T/C (dose: 30.0 mg/kg/injection, schedule: Q04DX003 (sc), vehicle: saline): 110 % of control | T/C (dose: 60.0 mg/kg/injection, schedule: Q04DX003 (sc), vehicle: saline): 83 % of control

CC1(C)COCN1COC1CCCCC1
T/C (dose: 100.0 mg/kg/injection, schedule: Q04DX003 (sc), vehicle: saline): 24 % of control | T/C (dose: 200.0 mg/kg/injection, schedule: Q04DX003 (sc), vehicle: saline): 32 % of control | T/C (dose: 400.0 mg/kg/injection, schedule: Q04DX003 (sc), vehicle: saline): 78 % of control | T/C (dose: 800.0 mg/kg/injection, schedule: Q04DX003 (sc), vehicle: saline): 56 % of control

COC1C(O)C(C)OC(OC2C(Oc3cccc4c(O)c5c(=O)oc6ccc(C)c7c(=O)oc(c34)c5c67)OC(C)C(O)C2O)C1O (stereo unspecified)
T/C (dose: 300.0 mg/kg/injection, schedule: Q04DX003 (sc), vehicle: Klucel (hydroxypropylcellulose) (HPC)): 90 % of control | T/C (dose: 600.0 mg/kg/injection, schedule: Q04DX003 (sc), vehicle: Klucel (hydroxypropylcellulose) (HPC)): 94 % of control | T/C (dose: 1200.0 mg/kg/injection, schedule: Q04DX003 (sc), vehicle: Klucel (hydroxypropylcellulose) (HPC)): 70 % of control | T/C (dose: 2400.0 mg/kg/injection, schedule: Q04DX003 (sc), vehicle: Klucel (hydroxypropylcellulose) (HPC)): 49 % of control

C[n+]1ccc(Nc2ccc(NC(=O)c3ccc(Nc4cc[n+](C)c5ccc(N)cc45)cc3)cc2)cc1
T/C (dose: 50.0 mg/kg/injection, schedule: Q04DX003 (sc), vehicle: distilled water + Tween-80): 59 % of control

C=C1C(=O)O[C@@H]2[C@H](O)[C@@H](C)[C@@H]3C=CC(=O)[C@@]3(C)[C@H](OC(=O)C=C(C)C)[C@H]12
T/C [6]: 65 % of control | T/C [7]: 105 % of control | T/C [1]: 84 % of control

O=C1C(NCC(O)CO)=C(N2CC2)C(=O)C(NCC(O)CO)=C1N1CC1 (stereo unspecified)
T/C (dose: 4.0 mg/kg/injection, schedule: Q04DX003 (ip), vehicle: saline): 76 % of control | T/C (dose: 8.0 mg/kg/injection, schedule: Q04DX003 (ip), vehicle: saline): 69 % of control | T/C (dose: 16.0 mg/kg/injection, schedule: Q04DX003 (ip), vehicle: saline): 46 % of control

Cc1cc(NCCN(C(C)C)C(C)C)nc(/N=C(\N)Nc2ccc(Cl)c(C(F)(F)F)c2)n1
T/C (dose: 80.0 mg/kg/injection, schedule: Q04DX003 (sc), vehicle: Klucel (hydroxypropylcellulose) (HPC)): 64 % of control | T/C (dose: 160.0 mg/kg/injection, schedule: Q04DX003 (sc), vehicle: Klucel (hydroxypropylcellulose) (HPC)): 62 % of control | T/C (dose: 320.0 mg/kg/injection, schedule: Q04DX003 (sc), vehicle: Klucel (hydroxypropylcellulose) (HPC)): 81 % of control

COC1CC(C)C(OC)c2cc(O)cc(c2O)NC(=O)/C(C)=C/C=C\C(C)C(OC(N)=O)/C(C)=C\C(C)C1OC (stereo unspecified)
T/C (dose: 12.5 mg/kg/injection, schedule: Q04DX003 (sc), vehicle: saline + alcohol): 103 % of control | T/C (dose: 25.0 mg/kg/injection, schedule: Q04DX003 (sc), vehicle: saline + alcohol): 104 % of control | T/C (dose: 50.0 mg/kg/injection, schedule: Q04DX003 (sc), vehicle: saline + alcohol): 90 % of control | T/C (dose: 100.0 mg/kg/injection, schedule: Q04DX003 (sc), vehicle: saline + alcohol): 109 % of control

Cc1ccc(S(=O)(=O)N/N=C/C(=O)O)cc1
T/C (dose: 25.0 mg/kg/injection, schedule: Q01DX010 (sc), vehicle: Klucel (hydroxypropylcellulose) (HPC)): 90 % of control | T/C (dose: 50.0 mg/kg/injection, schedule: Q01DX010 (sc), vehicle: Klucel (hydroxypropylcellulose) (HPC)): 103 % of control | T/C (dose: 400.0 mg/kg/injection, schedule: Q01DX010 (sc), vehicle: Klucel (hydroxypropylcellulose) (HPC)): 58 % of control | T/C (dose: 800.0 mg/kg/injection, schedule: Q01DX010 (sc), vehicle: Klucel (hydroxypropylcellulose) (HPC)): 71 % of control

CSc1ccc2c(c1)C(N1CCN(C)CC1)Cc1ccccc1S2 (stereo unspecified)
T/C (dose: 12.5 mg/kg/injection, schedule: Q04DX003 (sc), vehicle: other): 50 % of control | T/C (dose: 25.0 mg/kg/injection, schedule: Q04DX003 (sc), vehicle: other): 23 % of control | T/C (dose: 100.0 mg/kg/injection, schedule: Q04DX003 (sc), vehicle: other): 42 % of control

Cc1cc2nc3c(=O)[nH]c(=O)nc-3n(CC(O)C(O)C(O)C(O)CO)c2cc1C (stereo unspecified)
T/C [8]: 93 % of control | T/C [3]: 89 % of control | T/C [9]: 89 % of control | T/C [4]: 91 % of control

CS(=O)(=O)OCCCNCCCOS(C)(=O)=O
T/C (dose: 18.75 mg/kg/injection, schedule: Q04DX003 (sc), vehicle: saline): 61 % of control | T/C (dose: 75.0 mg/kg/injection, schedule: Q04DX003 (sc), vehicle: saline): 6 % of control and 7 % of control | T/C (dose: 150.0 mg/kg/injection, schedule: Q04DX003 (sc), vehicle: saline): 1 % of control

Cc1ccc(NCC2(/N=C/c3ccccc3)OC(CO)C(O)C2O)cc1 (stereo unspecified)
T/C (dose: 200.0 mg/kg/injection, schedule: Q04DX003 (sc), vehicle: Klucel (hydroxypropylcellulose) (HPC)): 109 % of control | T/C (dose: 400.0 mg/kg/injection, schedule: Q04DX003 (sc), vehicle: Klucel (hydroxypropylcellulose) (HPC)): 124 % of control | T/C (dose: 800.0 mg/kg/injection, schedule: Q04DX003 (sc), vehicle: Klucel (hydroxypropylcellulose) (HPC)): 94 % of control | T/C (dose: 1600.0 mg/kg/injection, schedule: Q04DX003 (sc), vehicle: Klucel (hydroxypropylcellulose) (HPC)): 101 % of control

CC[C@H](CC[C@@H](C)C1CC[C@H]2[C@@H]3CC=C4C[C@@H](OP(=O)(N5CC5)N5CC5)CC[C@]4(C)[C@H]3CC[C@]12C)C(C)C (stereo partly specified)
T/C [8]: 71 % of control | T/C [3]: 113 % of control | T/C [9]: 65 % of control | T/C [4]: 62 % of control

c1ccc2sc(SSN3CC4CCC(CC4)C3)nc2c1
T/C (dose: 200.0 mg/kg/injection, schedule: Q01DX010 (sc), vehicle: saline with Tween-80): 156 % of control | T/C [5]: 95 % of control

Cn1c(=O)[nH]c2nncnc2c1=O
T/C (dose: 125.0 mg/kg/injection, schedule: Q04DX003 (sc), vehicle: water): 92 % of control

CCOc1ccc(-c2nc3ccc(-c4nc5ccc(N6CCN(C)CC6)cc5[nH]4)cc3[nH]2)cc1
T/C (dose: 25.0 mg/kg/injection, schedule: Q04DX003 (ip), vehicle: saline): 96 % of control

ClCCCN1CCN(CCCl)CC1
T/C (dose: 7.5 mg/kg/injection, schedule: Q04DX003 (sc), vehicle: saline): 8 % of control and 10 % of control and 31 % of control

O=C1NCC(Br)C(=O)N1 (stereo unspecified)
T/C [2]: 100 % of control

CCOC(=O)/N=[N+](\[O-])c1ccccc1
T/C (dose: 37.5 mg/kg/injection, schedule: Q04DX003 (ip), vehicle: saline with Tween-80): 110 % of control

CCN(CC)CCn1[nH]c2c3ccc(=O)cc3sc3c(NCCN)ccc1c32
T/C (dose: 6.25 mg/kg/injection, schedule: Q04DX003 (ip), vehicle: water): 73 % of control | T/C (dose: 12.5 mg/kg/injection, schedule: Q04DX003 (ip), vehicle: water): 63 % of control

Cc1cc(NCCCN(C)C)c2ccc3c(ccc4c(NCCCN(C)C)cc(C)nc43)c2n1
T/C [6]: 77 % of control | T/C [7]: 65 % of control

Nc1nc(/C=C(/O)c2ccccc2)c2ncn(C3OC(CO)C(O)C3O)c2n1 (stereo unspecified)
T/C (dose: 200.0 mg/kg/injection, schedule: Q04DX003 (sc), vehicle: distilled water + Tween-80): 97 % of control | T/C (dose: 400.0 mg/kg/injection, schedule: Q04DX003 (sc), vehicle: distilled water + Tween-80): 100 % of control | T/C (dose: 800.0 mg/kg/injection, schedule: Q04DX003 (sc), vehicle: distilled water + Tween-80): 92 % of control | T/C (dose: 1600.0 mg/kg/injection, schedule: Q04DX003 (sc), vehicle: distilled water + Tween-80): 99 % of control
